In patent US6300317A, “Self-assembling polynucleotide delivery system” (The Regents of the University of California, priority 1995, dated 2001):
Read-outs that look alike come from different tables or passages of the source.

Tests used:
calf thymus DNA [1] = conditions: constant used to compute the bis-acridine binding constants; read-out: intrinsic dissociation constant for ethidium bromide; cited from earlier work
calf thymus DNA [2] = experiment: Ethidium bromide displacement assay, binding of bis-acridines to double-stranded DNA; conditions: computed from ethidium bromide displacement (IC50), noncooperative competitive binding model; read-out: Dissociation Constants of the Bis-acridines from Calf Thymus DNA
Experimental: The affinity of the bis-acridines for calf thymus DNA was calculated from the displacement of ethidium bromide from double stranded nucleic acids (Nielsen, supra). Ethidium displacement was monitored by the decrease of the ethidium bromide fluorescence (ex.=540 nm, em.=610 nm) that occurs when it is released from DNA. The association constants of the bis-acridines relative to ethidium bromide are calculated from their IC50. In this study, spermidine bis-acridine trihydrochloride (SBA.cndot.3HCl) synthesized as described (Nielsen, supra), was used as the reference compound. As a result of the loss of one of its three positive charges, a slight but significant decrease in affinity is observed when the N^4 amino group of spermidine bis-acridine is engaged in an amide bond with the targeting carbohydrate in compound 21 (Gal-bA.cndot.2 HCl). However, we predict an increase in affinity when spermidine bis-acridine is linked to the highly positively charged NLS peptide SEQ ID NO:1. G. Karup et al., Int J Peptide Protein Res (1988) 32:331-343.

| SMILES | Kd (calf thymus DNA [1]) | Kd (calf thymus DNA [2]) |
| --- | --- | --- |
| CC[n+]1c(-c2ccccc2)c2cc(N)ccc2c2ccc(N)cc21 [ethidium bromide] | 5.3 µM | – |
| O=C(CCCCCS[C@@H]1O[C@H](CO)[C@H](O)[C@H](O)[C@H]1O)NCCCC[C@H](NC(=O)CCCCCS[C@@H]1O[C@H](CO)[C@H](O)[C@H](O)[C@H]1O)C(=O)N[C@@H](CCCCNC(=O)CCCCCS[C@@H]1O[C@H](CO)[C@H](O)[C@H](O)[C@H]1O)C(=O)N(CCCCNc1c2ccccc2nc2ccccc12)CCCNc1c2ccccc2nc2ccccc12 [Gal3 Lys2 -bA] | – | 5.4 µM |
| c1ccc2c(NCCCCNCCCNc3c4ccccc4nc4ccccc34)c3ccccc3nc2c1 [SBA · 3HCl, N,N'-bis-(9-acridinyl)-4-aza-1,8-diaminooctane] | – | 0.024 µM |
